# Experimental data published in patent publication US4459290A, “C-23-Modified derivatives of OMT, pharmaceutical compositions and method of use” (priority 1982, dated 1984).
# Key:
# Format in all cases: cell-based
# Staphylococcus aureus = test: MIC, broth-dilution microtiter test (Table VII); conditions: Staphylococcus aureus
# Procedure: (§1) Especially noteworthy is the improved activity against gram-negative bacteria for several derivatives when compared to the activity of OMT. […] The MIC's in Tables V and VI were determined by standard agar-dilution assays. The MIC's in Table VII were obtained using a conventional broth-dilution microtiter test.
# [1] = tested on: Pasteurella multocida 17E; test: MIC, broth-dilution microtiter test (Table VII); conditions: Pasteurella multocida, 17E
# Procedure: as §1
# Mycoplasma synoviae = test: MIC, broth-dilution microtiter test (Table VII); conditions: Mycoplasmopsis synoviae
# Procedure: as §1
# [2] = tested on: Pasteurella hemolytica 23C; test: MIC, broth-dilution microtiter test (Table VII); conditions: Pasteurella, P. hemolytica 23C, read-out: MIC
# Procedure: as §1
# Mycoplasma hyorhinis = test: MIC, broth-dilution microtiter test (Table VII)
# Procedure: as §1
# [3] = tested on: Pasteurella multocida 68C; test: MIC, broth-dilution microtiter test (Table VII); conditions: Pasteurella multocida, 68C
# Procedure: as §1
# [4] = tested on: Pasteurella multocida 40G; test: MIC, broth-dilution microtiter test (Table VII); conditions: Pasteurella multocida, 40G
# Procedure: as §1
# Mycoplasma gallisepticum = test: MIC, broth-dilution microtiter test (Table VII); conditions: Mycoplasmoides gallisepticum; M. gallisepticum; broth-dilution microtiter; read-out: MIC
# Procedure: as §1
# [5] = tested on: Pasteurella multocida 60A; test: MIC, broth-dilution microtiter test (Table VII); conditions: Pasteurella multocida, 60A
# Procedure: as §1
# [6] = tested on: Pasteurella multocida 22A; test: MIC, broth-dilution microtiter test (Table VII); conditions: Pasteurella multocida, 22A
# Procedure: as §1
# [7] = tested on: Pasteurella hemolytica 41D; test: MIC, broth-dilution microtiter test (Table VII); conditions: Pasteurella, P. hemolytica 41D, read-out: MIC
# Procedure: as §1
# [8] = tested on: Pasteurella hemolytica 22C; test: MIC, broth-dilution microtiter test (Table VII); conditions: Pasteurella, P. hemolytica 22C, read-out: MIC
# Procedure: as §1
# Streptococcus sp. 80 = test: MIC, broth-dilution microtiter test (Table VII); conditions: Streptococcus sp. 80; broth-dilution microtiter; read-out: MIC
# Procedure: as §1
# Escherichia coli EC14 = test: MIC, standard agar-dilution assay (Table V); conditions: Escherichia coli; E. coli EC14; agar dilution; read-out: MIC
# Procedure: as §1
# [9] = tested on: Staphylococcus aureus X400; test: MIC, standard agar-dilution assay (Table V); conditions: Staphylococcus aureus; S. aureus X400, methicillin-resistant strain; agar dilution; read-out: MIC
# Procedure: as §1
# Streptococcus Group 9960 = test: MIC, standard agar-dilution assay (Table V); conditions: GROUP9960
# Procedure: as §1
# Shigella sonnei N9 = test: MIC, standard agar-dilution assay (Table V)
# Procedure: as §1
# Escherichia coli N10 = test: MIC, standard agar-dilution assay (Table V); conditions: Escherichia coli; E. coli N10; agar dilution; read-out: MIC
# Procedure: as §1
# [10] = tested on: Staphylococcus epidermidis EPI2; test: MIC, standard agar-dilution assay (Table V); conditions: Staphylococcus epidermidis; S. epidermidis EPI2; agar dilution; read-out: MIC
# Procedure: as §1
# [11] = tested on: Staphylococcus aureus V41; test: MIC, standard agar-dilution assay (Table V); conditions: Staphylococcus aureus; S. aureus V41, penicillin-resistant strain; agar dilution; read-out: MIC
# Procedure: as §1
# [12] = tested on: Klebsiella pneumoniae KAE; test: MIC, standard agar-dilution assay (Table V); conditions: Klebsiella pneumoniae; K. pneumoniae KAE; agar dilution; read-out: MIC
# Procedure: as §1
# [13] = tested on: Staphylococcus epidermidis EPI1; test: MIC, standard agar-dilution assay (Table V); conditions: Staphylococcus epidermidis; S. epidermidis EPI1; agar dilution; read-out: MIC
# Procedure: as §1
# [14] = tested on: Staphylococcus aureus X1.1; test: MIC, standard agar-dilution assay (Table V); conditions: Staphylococcus aureus, X1.1
# Procedure: as §1
# [15] = tested on: Klebsiella pneumoniae X26; test: MIC, standard agar-dilution assay (Table V); conditions: Klebsiella pneumoniae, X26
# Procedure: as §1
# [16] = tested on: Streptococcus Group D X66; test: MIC, standard agar-dilution assay (Table V)
# Procedure: as §1
# [17] = tested on: Staphylococcus aureus S13E; test: MIC, standard agar-dilution assay (Table V); conditions: Staphylococcus aureus, S13E
# Procedure: as §1
# [18] = tested on: Streptococcus pyogenes C203; test: MIC, standard agar-dilution assay (Table V); conditions: Streptococcus pyogenes; S. pyogenes C203; agar dilution; read-out: MIC
# Procedure: (§2) The MIC's in Tables V and VI were determined by standard agar-dilution assays. The MIC's in Table VII were obtained using a conventional broth-dilution microtiter test.
# Escherichia coli TEM = test: MIC, standard agar-dilution assay (Table V); conditions: Escherichia coli; E. coli TEM; agar dilution; read-out: MIC
# Procedure: as §2
# [19] = tested on: Streptococcus pneumoniae Park I; test: microbe, parasite or virus in culture; conditions: Streptococcus pneumoniae; S. pneumoniae Park I; agar dilution; read-out: MIC
# Procedure: as §1
# these strains = test: Activity against the strains of Table VI, agar-dilution; conditions: at the levels tested
# Procedure: as §1
structure (smiles),measurement,setting,value
"CCC1OC(=O)CC(O)C(C)C(OC2OC(C)C(O)C(N(C)C)C2OC(C)=O)C(CC=O)CC(C)C(=O)C=CC(C)=CC1C[n+]1ccccc1 (stereo not drawn) [Compound 1, 2'-O-Acetyl-23-deoxy-23-pyridinium-OMT Trifluoro methanesulfonate]",MIC,Staphylococcus aureus,50 µg/mL
same,MIC,[1],> 50 µg/mL
same,MIC,Mycoplasma synoviae,12.5 µg/mL
same,MIC,[2],> 50 µg/mL
same,MIC,Mycoplasma hyorhinis,50 µg/mL
same,MIC,[3],> 50 µg/mL
same,MIC,[4],> 50 µg/mL
same,MIC,Mycoplasma gallisepticum,25 µg/mL
same,MIC,[5],> 50 µg/mL
same,MIC,[6],> 50 µg/mL
same,MIC,[7],> 50 µg/mL
same,MIC,[8],> 50 µg/mL
same,MIC,Streptococcus sp. 80,12.5 µg/mL
same,MIC,Escherichia coli EC14,> 128 µg/mL
same,MIC,[9],64 µg/mL
same,MIC,Streptococcus Group 9960,64 µg/mL
same,MIC,Shigella sonnei N9,> 128 µg/mL
same,MIC,Escherichia coli N10,> 128 µg/mL
same,MIC,[10],64 µg/mL
same,MIC,[11],64 µg/mL
same,MIC,[12],> 128 µg/mL
same,MIC,[13],32 µg/mL
same,MIC,[14],32 µg/mL
same,MIC,[15],64 µg/mL
same,MIC,[16],64 µg/mL
same,MIC,[17],32 µg/mL
same,MIC,[18],32 µg/mL
same,MIC,Escherichia coli TEM,> 128 µg/mL
same,MIC,[19],8 µg/mL
same,activity against these strains,these strains,did not show activity
